Test results reported in patent USRE40086E1, “Method for treating bacterial infection with novel 7-substituted-9-substituted amino 6-demethyl-6-deoxytetracyclines” (Wyeth Holdings Corporation, priority 1991, dated 2008).

What was measured:
E. coli J3272 TetD = assay: MIC, agar dilution (Table IA); assay type: cell-based; conditions: unit assumed
S. aureus SMITH (sens) = assay: In vivo antibacterial evaluation, acute lethal infection in mice; conditions: Oral
From the text: In Vivo Antibacterial Evaluation (Table VII)

[1] = tested on: S. aureus UBMS 90-3 (Sensitive); assay: MIC, agar dilution; assay type: cell-based; conditions: S. aureus UBMS 90-3; Table IA; unit assumed
[2] = tested on: Ps. acruginosa ATCC 27853; assay: MIC, agar dilution (Table IA); assay type: cell-based; conditions: unit assumed
E. coli #311 (MP) = assay: MIC, agar dilution (Table IA); assay type: cell-based; conditions: unit assumed
E. coli UBMS 88-1 (tetB) = assay: MIC, agar dilution; assay type: cell-based; conditions: E. coli UBMS 88-1 TetB; Table IA; unit assumed
[3] = tested on: X. maltophilia NEMC 87210; assay: MIC, agar dilution (Table IA); assay type: cell-based; conditions: unit assumed
[4] = tested on: S. aureus UBMS 90-1 (tetM); assay: MIC, agar dilution; assay type: cell-based; conditions: S. aureus UBMS 90-1 TetM; Table IA; unit assumed
E. coli UBMS 90-4 (tetM) = assay: MIC, agar dilution; assay type: cell-based; conditions: E. coli UBMS 90-4 TetM; Table IA; unit assumed
E. coli ATCC 25922 = assay: MIC, agar dilution; assay type: cell-based; conditions: E. coli ATCC 25922; Table IA; unit assumed
S. aureus NEMC 8769/89-4 = assay: MIC, agar dilution (Table IA); assay type: cell-based; conditions: unit assumed
[5] = tested on: Wild Type S30 extract, E. coli strain MRE600 (tetracycline sensitive); assay: E. coli in vitro transcription and protein translation, 35S-methionine incorporation (Table VIII)
[6] = tested on: E. coli UBMS 89-2 (Sensitive); assay: MIC, agar dilution; assay type: cell-based; conditions: E. coli UBMS 89-2 Tet Sens.; Table IA; unit assumed
[7] = tested on: S. aureus IVES 2943 (meth. resistant); assay: MIC, agar dilution; assay type: cell-based; conditions: S. aureus IVES 2943; Table IA; unit assumed
S. aureus ROSE (MP) = assay: MIC, agar dilution (Table IA); assay type: cell-based; conditions: unit assumed
[8] = tested on: S. aureus Smith (Sensitive); assay: MIC, agar dilution; assay type: cell-based; conditions: S. aureus SMITH (MP); Table IA; unit assumed
E. coli UBMS 90-5 = assay: MIC, agar dilution (Table IA); assay type: cell-based; conditions: unit assumed
E. coli J2175 = assay: MIC, agar dilution (Table IA); assay type: cell-based; conditions: unit assumed
[9] = tested on: S. aureus UBMS 88-4 (Sensitive); assay: MIC, agar dilution; assay type: cell-based; conditions: S. aureus UBMS 88-4; Table IA; unit assumed
[10] = tested on: S. aureus UBMS 90-2 (tetM); assay: MIC, agar dilution; assay type: cell-based; conditions: S. aureus UBMS 90-2 TetM; Table IA; unit assumed
E. faecalis 12201 = assay: MIC, agar dilution; assay type: cell-based; conditions: Enterococcus 12201; Table IA; unit assumed
[11] = tested on: S. aureus UBMS 88-7 (tetK); assay: MIC, agar dilution; assay type: cell-based; conditions: S. aureus UBMS 88-7 TetK; Table IA; unit assumed
E. coli J3272 Tet sens. = assay: MIC, agar dilution (Table IA); assay type: cell-based; conditions: unit assumed
E. coli BAJ9003 = assay: MIC, agar dilution (Table IA); assay type: cell-based; conditions: unit assumed
[12] = tested on: S. haemolyticus AVAH 88-3; assay: MIC, agar dilution; assay type: cell-based; conditions: S. hemolyticus AVHAH 88-3; Table IA; unit assumed
S. mariescens FDOR 8733 = assay: MIC, agar dilution (Table IA); assay type: cell-based; conditions: unit assumed
[13] = tested on: S. aureus ATCC 29213 (Sensitive); assay: MIC, agar dilution; assay type: cell-based; conditions: S. aureus ATCC 29213; Table IA; unit assumed
E. coli MC4100 TetB = assay: MIC, agar dilution (Table IA); assay type: cell-based; conditions: unit assumed
E. coli J3272 TetC = assay: MIC, agar dilution (Table IA); assay type: cell-based; conditions: unit assumed
[14] = tested on: S. aureus IVES 1983 (meth. resistant); assay: MIC, agar dilution; assay type: cell-based; conditions: S. aureus IVES 1983; Table IA; unit assumed
E. coli UBMS 89-1 (tetM) = assay: MIC, agar dilution; assay type: cell-based; conditions: E. coli UBMS 89-1 TetM; Table IA; unit assumed
E. coli PRP1 TetA = assay: MIC, agar dilution (Table IA); assay type: cell-based; conditions: unit assumed
E. faecalis ATCC 29212 = assay: MIC, agar dilution; assay type: cell-based; conditions: E. faecalis ATCC 29212; Table IA; unit assumed
[15] = tested on: TetM S30 extract, derivative of E. coli MRE600 containing the tetM determinant; assay: E. coli in vitro transcription and protein translation, 35S-methionine incorporation (Table VIII)
[16] = tested on: S. aureus UBMS 88-5 (tetM); assay: MIC, agar dilution; assay type: cell-based; conditions: S. aureus UBMS 88-5 TetM; Table IA; unit assumed

Compound	Antibacterial activity (MIC) (E. coli J3272 TetD) [µg/mL]	Antibacterial activity (MIC) [1] [µg/mL]	Antibacterial activity (MIC) [2] [µg/mL]	Antibacterial activity (MIC) (E. coli #311 (MP)) [µg/mL]	Antibacterial activity (MIC) (E. coli UBMS 88-1 (tetB)) [µg/mL]	Antibacterial activity (MIC) [3] [µg/mL]	Antibacterial activity (MIC) [4] [µg/mL]	Antibacterial activity (MIC) (E. coli UBMS 90-4 (tetM)) [µg/mL]	Antibacterial activity (MIC) (E. coli ATCC 25922) [µg/mL]	Antibacterial activity (MIC) (S. aureus NEMC 8769/89-4) [µg/mL]	% INHIBITION Wild Type S30 ([5]; 0.06 mg/ml) [%]	% INHIBITION Wild Type S30 ([5]; 0.2 mg/ml) [%]	% INHIBITION Wild Type S30 ([5]; 1.0 mg/ml) [%]	Antibacterial activity (MIC) [6] [µg/mL]	Antibacterial activity (MIC) [7] [µg/mL]	Antibacterial activity (MIC) (S. aureus ROSE (MP)) [µg/mL]	Antibacterial activity (MIC) [8] [µg/mL]	Antibacterial activity (MIC) (E. coli UBMS 90-5) [µg/mL]	Antibacterial activity (MIC) (E. coli J2175) [µg/mL]	Antibacterial activity (MIC) [9] [µg/mL]	other results
CCN(CC)CC(=O)Nc1cc(N(C)C)c2c(c1O)C(=O)C1=C(O)[C@]3(O)C(=O)C(C(N)=O)=C(O)[C@@H](N(C)C)C3CC1C2.Cl.Cl (stereo partly drawn) [RR, [4S-(4alpha,12aalpha))-9-([(Diethylamino)acetyl)amino]-4,7-Bis(dimethylamino)-1,4,4a,5,5a,6,11,12a-octahydro-3,10,12,12a-tetrahydroxy-1,11-dioxo-2-naphthacenecarboxamide dihydrochloride]	0.25	0.25	32	0.5	1	0.25	0.25	0.5	0.5	0.06	93	97	99	1	1	1	0.25	1	1	0.25	ED50 (S. aureus SMITH (sens)): 8 to 16 mg/kg; Antibacterial activity (MIC) [10]: 0.25 µg/mL; Antibacterial activity (MIC) (E. faecalis 12201): 0.12 µg/mL; Antibacterial activity (MIC) [11]: 0.5 µg/mL; Antibacterial activity (MIC) (E. coli J3272 Tet sens.): 1 µg/mL; Antibacterial activity (MIC) (E. coli BAJ9003): 0.06 µg/mL; Antibacterial activity (MIC) [12]: 0.5 µg/mL; Antibacterial activity (MIC) (S. mariescens FDOR 8733): 4 µg/mL; Antibacterial activity (MIC) [13]: 0.12 µg/mL; Antibacterial activity (MIC) (E. coli MC4100 TetB): 1 µg/mL; Antibacterial activity (MIC) (E. coli J3272 TetC): 1 µg/mL; Antibacterial activity (MIC) [14]: 0.25 µg/mL; Antibacterial activity (MIC) (E. coli UBMS 89-1 (tetM)): 0.25 µg/mL; Antibacterial activity (MIC) (E. coli PRP1 TetA): 2 µg/mL; Antibacterial activity (MIC) (E. faecalis ATCC 29212): 0.12 µg/mL; % INHIBITION TetM S30 ([15]; 0.06 mg/ml): 90%; % INHIBITION TetM S30 ([15]; 0.2 mg/ml): 97%; % INHIBITION TetM S30 ([15]; 1.0 mg/ml): 99%; Antibacterial activity (MIC) [16]: 0.25 µg/mL
CCNCC(=O)Nc1cc(N(C)C)c2c(c1O)C(=O)C1=C(O)[C@]3(O)C(=O)C(C(N)=O)=C(O)[C@@H](N(C)C)C3CC1C2.Cl.Cl (stereo partly shown) [OO]	0.5	0.5	16	1	1	2	1	0.5	1	0.5	94	97	99	1	8	8	0.5	1	1	1	Antibacterial activity (MIC) [10]: 0.5 µg/mL; Antibacterial activity (MIC) (E. faecalis 12201): 0.25 µg/mL; Antibacterial activity (MIC) [11]: 8 µg/mL; Antibacterial activity (MIC) (E. coli J3272 Tet sens.): 1 µg/mL; Antibacterial activity (MIC) (E. coli BAJ9003): 0.12 µg/mL; Antibacterial activity (MIC) [12]: 1 µg/mL; Antibacterial activity (MIC) (S. mariescens FDOR 8733): 8 µg/mL; Antibacterial activity (MIC) [13]: 1 µg/mL; Antibacterial activity (MIC) (E. coli MC4100 TetB): 1 µg/mL; Antibacterial activity (MIC) (E. coli J3272 TetC): 2 µg/mL; Antibacterial activity (MIC) [14]: 8 µg/mL; Antibacterial activity (MIC) (E. coli UBMS 89-1 (tetM)): 1 µg/mL; Antibacterial activity (MIC) (E. coli PRP1 TetA): 2 µg/mL; Antibacterial activity (MIC) (E. faecalis ATCC 29212): 0.25 µg/mL; % INHIBITION TetM S30 ([15]; 0.06 mg/ml): 87%; % INHIBITION TetM S30 ([15]; 0.2 mg/ml): 95%; % INHIBITION TetM S30 ([15]; 1.0 mg/ml): 99%; Antibacterial activity (MIC) [16]: 1 µg/mL
CN(C)c1cc(NC(=O)Cn2ccnc2)c(O)c2c1CC1CC3[C@H](N(C)C)C(O)=C(C(N)=O)C(=O)[C@@]3(O)C(O)=C1C2=O.Cl.Cl (stereo partly drawn) [VV, [7S-(7alpha,10aalpha)]-N-[9-(Aminocarbonyl)-4,7-bis(dimethylamino)-5,5a,6,6a,7,10,10a,12-octahydro-1,8,10a,11-tetrahydroxy-10,12-dioxo-2-naphthacenyl]-1H-imidazole-1-acetamide dihydrochloride]	> 32	4	> 32	> 32	> 32	> 32	32	> 32	> 32	4	91	93	99	> 32	> 32	> 32	4	> 32	> 32	8	Antibacterial activity (MIC) [10]: 16 µg/mL; Antibacterial activity (MIC) (E. faecalis 12201): 4 µg/mL; Antibacterial activity (MIC) [11]: 32 µg/mL; Antibacterial activity (MIC) (E. coli J3272 Tet sens.): > 32 µg/mL; Antibacterial activity (MIC) (E. coli BAJ9003): 1 µg/mL; Antibacterial activity (MIC) [12]: > 32 µg/mL; Antibacterial activity (MIC) (S. mariescens FDOR 8733): > 32 µg/mL; Antibacterial activity (MIC) [13]: 8 µg/mL; Antibacterial activity (MIC) (E. coli MC4100 TetB): > 32 µg/mL; Antibacterial activity (MIC) (E. coli J3272 TetC): > 32 µg/mL; Antibacterial activity (MIC) [14]: > 32 µg/mL; Antibacterial activity (MIC) (E. coli UBMS 89-1 (tetM)): > 32 µg/mL; Antibacterial activity (MIC) (E. coli PRP1 TetA): > 32 µg/mL; Antibacterial activity (MIC) (E. faecalis ATCC 29212): 4 µg/mL; % INHIBITION TetM S30 ([15]; 0.06 mg/ml): 79%; % INHIBITION TetM S30 ([15]; 0.2 mg/ml): 92%; % INHIBITION TetM S30 ([15]; 1.0 mg/ml): 98%; Antibacterial activity (MIC) [16]: 32 µg/mL
